pIC50, pKi: −log10 of the molar value.
Columns and labels:
[1] = octanol/water partition (K octanol/water); format: physicochemical
Source text: (§1) Lobinaline and the “mono”-N-oxide were separated from plant and culture material by acid/base extraction, but the bi-N-oxide was derived from lobinaline using 3-chloroperbenzoic acid. All these compounds were separated by column chromatography with identity and purity confirmed by LC/MS.

aqueous solubility = format: physicochemical
Source text: Lobinaline (FIG. 1), was isolated from plant material and identified as the first-known binitrogenous plant alkaloid more than 80 years ago [27]. The applicants began to test its pharmacological activity after identifying Lobelia cardinalis as a novel source of nicAChR activity by high throughput screening in 2005 [26]. This plant species has no history of abuse, or traditional medicinal use of relevance to SUDs. […] These actions support lobinaline as a lead compound for the treatment of SUDs, particularly alcohol and nicotine use disorders. […] Lobinaline also appears to have appropriate pharmacokinetics and low toxicity. […] Conversely, this makes it a good test of the ability of target-directed evolution to generate novel inhibitors of the DAT in mutant plant cells.
as §1

[2] = system: rat striatal synaptosomes; assay: [3H]DA release from rat striatal synaptosomes; format: biochemical; details: preloaded synaptosomes; 10-500 uM tested; 30 min at 37° C
Experimental: (§2) [3H]DA release from rat striatal synaptosomes: Synaptosomes preloaded with [3H]DA were exposed to lobinaline (10-500 uM), 30 min @ 37° C.). [3H]DA release was calculated by subtraction of activity following drug treatment from activity in the absence of drug.

alpha4/beta2 nicAChR = target: T1, alpha4/beta2 nicAChR (Rattus norvegicus, UniProt P09483+P12390); assay: displacement of beta2-selective radioligand [3H]cytisine; format: binding
T1 construct: from tissue
T1 sequence (P09483 31-630): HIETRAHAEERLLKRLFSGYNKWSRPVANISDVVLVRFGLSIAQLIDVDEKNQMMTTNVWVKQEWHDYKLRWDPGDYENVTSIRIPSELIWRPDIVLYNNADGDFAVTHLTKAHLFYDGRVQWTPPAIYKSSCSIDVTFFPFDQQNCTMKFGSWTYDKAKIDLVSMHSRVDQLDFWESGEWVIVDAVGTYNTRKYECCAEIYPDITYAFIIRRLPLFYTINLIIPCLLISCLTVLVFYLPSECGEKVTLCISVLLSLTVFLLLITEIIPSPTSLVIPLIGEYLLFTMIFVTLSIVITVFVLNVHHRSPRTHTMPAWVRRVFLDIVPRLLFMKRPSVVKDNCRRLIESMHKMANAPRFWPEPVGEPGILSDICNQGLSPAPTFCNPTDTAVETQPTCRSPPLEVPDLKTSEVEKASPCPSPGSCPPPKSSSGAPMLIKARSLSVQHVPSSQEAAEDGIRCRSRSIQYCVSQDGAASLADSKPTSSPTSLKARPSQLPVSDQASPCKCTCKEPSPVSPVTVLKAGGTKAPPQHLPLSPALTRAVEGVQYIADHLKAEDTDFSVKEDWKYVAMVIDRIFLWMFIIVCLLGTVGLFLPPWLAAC
T1 sequence (P12390 25-500): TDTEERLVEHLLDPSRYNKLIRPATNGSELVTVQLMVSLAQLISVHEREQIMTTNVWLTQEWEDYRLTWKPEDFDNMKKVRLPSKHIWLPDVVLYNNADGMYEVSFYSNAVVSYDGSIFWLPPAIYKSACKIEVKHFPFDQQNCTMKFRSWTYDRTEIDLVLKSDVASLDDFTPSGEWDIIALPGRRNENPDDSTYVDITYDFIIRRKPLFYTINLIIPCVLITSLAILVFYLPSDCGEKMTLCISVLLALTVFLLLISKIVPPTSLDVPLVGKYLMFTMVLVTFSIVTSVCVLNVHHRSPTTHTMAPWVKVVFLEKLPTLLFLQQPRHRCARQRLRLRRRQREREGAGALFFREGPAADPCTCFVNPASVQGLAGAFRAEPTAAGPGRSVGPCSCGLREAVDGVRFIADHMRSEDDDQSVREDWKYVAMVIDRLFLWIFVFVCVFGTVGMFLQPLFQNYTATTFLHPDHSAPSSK

alpha7-nicAChR = target: T2, alpha7-nicAChR (Rattus norvegicus, UniProt Q05941); assay: displacement of [3H]-methyllycaconitine; format: binding; details: alpha7-nicAChR selective radioligand
T2 construct: from tissue
T2 sequence (Q05941 23-502): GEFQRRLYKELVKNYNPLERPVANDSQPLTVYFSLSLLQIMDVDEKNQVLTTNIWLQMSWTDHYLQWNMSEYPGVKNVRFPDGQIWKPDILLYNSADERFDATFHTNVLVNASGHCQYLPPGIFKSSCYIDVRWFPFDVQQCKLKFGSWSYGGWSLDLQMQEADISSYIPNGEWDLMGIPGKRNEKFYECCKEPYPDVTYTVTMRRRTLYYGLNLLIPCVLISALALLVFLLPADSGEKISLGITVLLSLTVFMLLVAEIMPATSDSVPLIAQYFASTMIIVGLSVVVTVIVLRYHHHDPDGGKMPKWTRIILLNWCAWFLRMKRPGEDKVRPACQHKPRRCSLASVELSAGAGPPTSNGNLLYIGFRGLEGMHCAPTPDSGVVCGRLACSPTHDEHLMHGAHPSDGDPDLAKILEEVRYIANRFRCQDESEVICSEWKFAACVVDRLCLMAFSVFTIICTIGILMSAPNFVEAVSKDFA

nicAChR = assay: 45Ca2+ entry into SHSY5Y cells; format: cell-based; details: conclusion from 45Ca2+ entry
Source text: Effects of lobinaline and nicotine on ^45Ca^2+ entry into SHSY5Y cells: nicAChR function can be evaluated semi-quantitatively in this cell line by measuring ^45Ca^2+ entry in response to nicotine. […] The lobinaline N-oxides have not yet been tested in this system.

nicAChRs = assay: [3H]DA release from superfused rat striatal slices; format: cell-based; details: 100 uM superfused before nicotine
Experimental: Effects of lobinaline and nicotine on [3H]DA release from superfused rat striatal slices (ref 5): rat brain striatal slices were incubated with [3H]DA for 30 min at […] before transfer to superfusion chambers. […] To evaluate the role of nicAChRs, striatal slices preloaded with [3H]-DA were pretreated with the nicAChR antagonist mecamylamine (10 μM) prior to superfusion of lobinaline (100 μM). […] With the data above from SHSY5Y cells, this supports a partial agonist action of lobinaline at nicAChRs. The N-oxides have not yet been tested in this system. Lobinaline has weak agonist effects on nicAChRs, but also has as yet unquantified antagonist effects (i.e. it acts as a partial agonist at nicAChRs).

[3] = Drinking in the dark model of binge drinking; format: in vivo, C57Bl/6J mice; details: 25 mg/Kg SC
Experimental: “Drinking in the dark” is a model for binge drinking in which C57Bl/6J mice are given limited access to alcohol during their dark cycle. With repeated daily access, mice will voluntarily drink to blood alcohol levels above 150 mg/dl. Lobeline reduces alcohol consumption in this model and it has predictive validity in that both naltrexone and acamprosate are active.
Methods: 8 male and 8 female mice were used for each of these studies and scoring was by an observer blind to treatment. Statistical analysis was by ANOVA followed by Bonnferoni posthoc with significance at p<0.05.

DAT [4] = target: T3, DAT (Rattus norvegicus, UniProt P23977); assay: [3H]DA uptake into rat striatal synaptosomes; format: biochemical; set-up: from tissue; host or cells: rat striatum (synaptosomes; homogenate); details: compound added 15 min before [3H]DA, 30 min at 37° C, read-out: IC50, inhibition of [3H]-DA uptake
T3 sequence (P23977 whole entry): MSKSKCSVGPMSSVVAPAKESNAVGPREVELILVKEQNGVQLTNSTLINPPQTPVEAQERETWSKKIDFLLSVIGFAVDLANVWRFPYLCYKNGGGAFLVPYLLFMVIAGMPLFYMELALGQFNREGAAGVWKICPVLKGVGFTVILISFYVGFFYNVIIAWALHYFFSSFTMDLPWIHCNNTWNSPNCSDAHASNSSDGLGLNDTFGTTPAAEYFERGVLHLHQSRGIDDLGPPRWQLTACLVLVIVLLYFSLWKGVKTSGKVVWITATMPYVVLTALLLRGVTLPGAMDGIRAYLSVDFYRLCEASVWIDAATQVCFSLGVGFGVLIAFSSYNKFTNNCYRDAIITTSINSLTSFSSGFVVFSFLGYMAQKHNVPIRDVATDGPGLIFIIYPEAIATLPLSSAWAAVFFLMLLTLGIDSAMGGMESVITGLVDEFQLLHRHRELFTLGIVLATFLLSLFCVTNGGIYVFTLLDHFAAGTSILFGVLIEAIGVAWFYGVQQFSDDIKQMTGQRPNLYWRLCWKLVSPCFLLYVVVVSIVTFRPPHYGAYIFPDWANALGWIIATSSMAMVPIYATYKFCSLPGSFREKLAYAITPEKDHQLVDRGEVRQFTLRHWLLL
Experimental: Lobinaline or the N-oxides were added 15 min before addition of [3H]DA. Synaptosomal uptake of [3H]DA was measured after 30 min incubation at 37° C.

DAT [5] = target: T3, DAT; assay: [3H]GBR 12935 binding to rat striatal homogenate; set-up: from tissue; host or cells: rat striatum (synaptosomes; homogenate)
Experimental: as §2

DAT [6] = target: T3, DAT; assay: dopamine uptake in striatum of isoflurane-anesthetized rats by in vivo electrochemistry, Examples 19-20; set-up: DA clearance in striatum and nucleus accumbens of urethane-anesthetized SD rats; from tissue; host or cells: striatum / nucleus accumbens of living anesthetized SD rats; species or system SD rats
Experimental: After obtaining reproducible signals for locally applied DA (50-75 nl, 200 μM) to produce a control DA peak height below 1 uM, vehicle or drug was locally applied slowly over 10-30 sec (˜500 nl 250 μM), then 60 sec later the next application of DA was performed, with subsequent DA applications at 5-min intervals for 25 min. […] The DA kinetic data from each animal were analyzed using FAST software (Quanteon, LLC, Nicholasville KY USA). […] These parameters were compared between pre- and post-drug application by one-way ANOVA with Tukey's post hoc analysis, with significance assigned at p<0.05.

CN1CCCC2C(c3ccccc3)C(C3=NCCCC3)C(c3ccccc3)CC21 (stereo not shown) [lobinaline]
K octanol/water (Ko/w) [1]: 4.8
aqueous solubility (aqueous solubility): very low aqueous solubility
concentration causing significant release of [3H]DA [2]: 500 µM
pKi (alpha4/beta2 nicAChR): 5.96
pKi (alpha7-nicAChR): 4.82
mode of action at nicAChRs (nicAChR): weak partial agonist
fractional [3H]DA release induced by 10 uM nicotine after test substance (nicAChRs): completely prevented
food or water intake [3]: no reduction in food or water intake
overt toxicity [3]: neither compound produced overt toxicity
inhibition of alcohol consumption ([3]; males and females): ~40%
pIC50 (DAT [4]): 6.44
extent of displacement of [3H]GBR 12935 (DAT [5]): completely displaced
pKi (DAT [5]; read-out: Ki, displacement of [3H]GBR 12935): 5.60
release of endogenous DA (DAT [6]; any brain region, n=8-36): Neither lobinaline nor its N-oxides ever caused release of endogenous DA
effect on DA clearance parameters (DAT [6]; relative to % control): small, but significant, reduction in all DA clearance parameters
effect on amplitude of the DA signal (DAT [6]; single local application ~500 nl 250 μM, striatum, FIGS. 10, 11): transient, a non-significant decrease in amplitude
